Results published in patent US20090215778A1, “Alpha-substituted Arylmethyl Piperazine Pyrazolo [1,5-alpha]Pyrimidine Amide Derivatives” (priority 2007, published 2009).
Read-outs that look alike come from different tables or passages of the source.

How the values were obtained:
[1] = target: T1, HIV Env six-helix bundle (6HB) structure (Human immunodeficiency virus type 1 group M subtype B, UniProt P04579); experiment: Six-helix bundle (6HB) assay; assay type: cell-based, HIV-1 (strain RF)
T1 construct: H9 cells chronically infected with HIV-1 (H9/HIV-1RF); endogenous in cells; host or cells: H9 cells chronically infected with HIV-1 strain RF (Env is made from the virus in the infected cells, not by transfection)
T1 sequence (P04579 32-519): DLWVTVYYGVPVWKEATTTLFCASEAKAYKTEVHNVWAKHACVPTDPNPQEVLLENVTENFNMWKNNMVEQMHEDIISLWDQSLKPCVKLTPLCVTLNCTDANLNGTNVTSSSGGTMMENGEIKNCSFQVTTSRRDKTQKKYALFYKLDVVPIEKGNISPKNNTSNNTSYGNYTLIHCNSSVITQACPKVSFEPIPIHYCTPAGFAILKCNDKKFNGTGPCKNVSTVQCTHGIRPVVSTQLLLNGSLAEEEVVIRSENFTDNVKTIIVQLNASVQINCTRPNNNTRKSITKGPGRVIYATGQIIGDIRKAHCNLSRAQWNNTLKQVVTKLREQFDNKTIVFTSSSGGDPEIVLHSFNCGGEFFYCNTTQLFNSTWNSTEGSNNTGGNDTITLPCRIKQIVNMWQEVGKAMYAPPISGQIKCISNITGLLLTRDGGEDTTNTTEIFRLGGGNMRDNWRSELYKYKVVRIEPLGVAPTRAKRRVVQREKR
T1 sequence (P04579 520-865): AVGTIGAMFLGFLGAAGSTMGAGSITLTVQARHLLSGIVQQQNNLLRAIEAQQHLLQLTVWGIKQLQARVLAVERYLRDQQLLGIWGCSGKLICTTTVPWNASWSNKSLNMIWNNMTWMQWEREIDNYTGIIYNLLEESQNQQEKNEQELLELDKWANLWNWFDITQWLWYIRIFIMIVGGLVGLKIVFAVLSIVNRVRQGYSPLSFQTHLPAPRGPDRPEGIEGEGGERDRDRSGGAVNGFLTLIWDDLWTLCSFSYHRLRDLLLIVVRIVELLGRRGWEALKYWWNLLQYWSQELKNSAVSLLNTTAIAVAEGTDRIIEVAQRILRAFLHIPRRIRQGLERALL
Method: 3×10^6H9 cells were incubated with 1 mL of HIV-1 (strain RF) supplemented with 40 μg/mL of DEAE-dextran. Virus and cells were incubated together at 37° C. for 2-4 hours with sporadic shaking to resuspend cells. 10 mL of media (RPMI 1640 containing 10% fetal bovine serum and supplemented with 50 μg/mL gentamicin) was then added and the virus-cell coculture was incubated at 37° C. in a humidified 5% CO2 incubator. 3 days post-infection and every 2-3 days thereafter, the infected H9/HIV-1RF cells were centrifuged, the supernatant was removed, and the cells were resuspended at a density of 0.3×10^6 cells/mL in media (RPMI 1640 containing 10% fetal bovine serum and supplemented with 50 μg/mL gentamicin). Chronically infected H9/HIV-1RF cells were used in experiments starting 12-15 days after infection and up to 40 days post-infection.
This assay determines the effect of compounds on conformational changes in HIV envelope glycoprotein (Env) that are required in order for Env to mediate the fusion of the viral and cellular membranes during virus entry and infection. Specifically, this assay measures the effect of compounds on the formation of the HIV Env six-helix bundle (6HB) structure.
H9 cells chronically infected with HIV-1 (H9/HIV-1RF) were resuspended in Stain/Wash Buffer (1% bovine serum albumin, 0.1% sodium azide in phosphate-buffered saline) and aliquoted at 2.5×10^5 cells per well into 96-well V-bottom plates containing various concentrations of test compounds. Cells and compounds were incubated for 30 minutes at 37° C. Recombinant soluble CD4 (sCD4) was then added to a final concentration of 1 μg/mL. Negative control wells contained no sCD4 and no test compound. Positive control wells contained sCD4 but no test compound. The plate was incubated for 1 hour at 37° C. to allow the sCD4 to bind to HIV Env and induce conformational changes in the Env protein. Antibody that is specific for the HIV Env six-helix bundle conformation was then added (1 μL polyclonal rabbit serum per well), and the plate was incubated for an additional 1 hour at 37° C. to permit antibody binding. The cells were then washed once with Stain/Wash Buffer to remove compound and excess antibody. The cells were resuspended in Stain/Wash Buffer containing PE-labeled anti-rabbit secondary antibody (KPL) at 0.25 μg per well. The cells were incubated for 45 min at 4° C. to permit secondary antibody binding. Fluorescence was detected using a BD FACSArray™ bioanalyzer. Compounds that inhibited Env conformational changes were identified as those that decreased primary antibody binding to the six-helix bundle epitope resulting in a decrease in fluorescence signal.

HIV-1, NL4-3 strain = experiment: Virus infection assay (virus entry and single-cycle infection); assay type: cell-based; details: Human immunodeficiency virus 1, NL43, TZM-b1, read-out: Nl4
Method: TZM-b1 indicator cells were propagated in Dulbecco's Modified Eagle's Medium (DMEM) containing 10% fetal bovine serum (FBS, heat-inactivated) and supplemented with gentamicin (50 ug/mL).
This assay determines the effects of compounds on virus entry and single-cycle infection of cells. In this assay, virus (HIV-1, NL4-3 strain) is added to indicator cells expressing the CD4 receptor and both the CXCR4 and CCR5 co-receptor. The cells contain both a lac Z and a luciferase reporter gene under control of the viral LTR transcription promoter. The cells and virus are incubated together in the presence of various concentrations of test compounds. Successful infection of the cells by the virus permits activation of the reporter gene by the viral Tat transcription factor. The resulting beta-galactosidase or luciferase activity is quantitated using a chemiluminescent substrate and a luminescent plate reader.
Specifically, one day prior to infection, 1.5×10^4 TZM-b1 indicator cells were added to each well of a 96-well microtiter plate. On the day of the experiment, virus (MOI 0.01) in 50 μL of medium (Dulbecco's Modified Eagle's Medium) supplemented with DEAE-dextran at a final concentration of 80 μg/mL was added to cells along with various concentrations of test compound in 50 μL of Dulbecco's Modified Eagle's Medium. Control wells had virus alone. Following a 4 hr incubation at 37° C., complete media [DMEM supplemented with 10% fetal bovine serum (FBS, heat-inactivated) and gentamicin (50 ug/mL)] was added. One day post-infection the level of virus infection was quantitated by detection of β-galactosidase expression using the Gal-Screen system (Applied Biosystems).

SMILES	IC50 [1] [nM]	IC50 (HIV-1, NL4-3 strain) [nM]	IC50 ([1]; read-out: 6HB IC50, H9 cells chronically infected with HIV-1 RF, sCD4-induced six-helix bundle formation) [nM]
COc1ccc(-c2nc3c(C(=O)N4CCN(C(CO)c5ccccc5N)C[C@H]4C)cnn3c(C(F)(F)F)c2C)cc1 (stereo partly drawn) [methanone, [(2R)-4-[1-(2-aminophenyl)-2-hydroxyethyl]-2-methyl-1-piperazinyl][5-(4-methoxyphenyl)-6-methyl-7-(trifluoromethyl)pyrazolo[1,5-α]pyrimidin-3-yl]-]	1100 to 10000	1100 to 10000	–
COc1ccc(-c2nc3c(C(=O)N4CCN(C(CO)c5cccc(NC(=O)C(C)C)c5)C[C@H]4C)cnn3c(C(F)(F)F)c2C)cc1 (stereo partly drawn) [propanamide, N-[3-[2-hydroxy-1-[(3R)-4-[[5-(4-methoxyphenyl)-6-methyl-7-(trifluoromethyl)pyrazolo[1,5-α]pyrimidin-3-yl]carbonyl]-3-methyl-1-piperazinyl]ethyl]phenyl]-2-methyl-]	< 1000	1100 to 10000	–
COc1ccc(-c2nc3c(C(=O)N4CCN(C(CO)c5cc(OC)ccc5OC)C[C@H]4C)cnn3c(C(F)(F)F)c2C)cc1 (stereo partly drawn) [methanone, [(2R)-4-[1-(2,5-dimethoxyphenyl)-2-hydroxyethyl]-2-methyl-1-piperazinyl][5-(4-methoxyphenyl)-6-methyl-7-(trifluoromethyl)pyrazolo[1,5-α]pyrimidin-3-yl]-]	1100 to 10000	< 1000	–
COc1ccc(-c2nc3c(C(=O)N4CCN([C@H](CO)c5cccnc5OC)C[C@H]4C)cnn3c(C(F)(F)F)c2C)cc1 [methanone, [(2R)-4-[(1S)-2-hydroxy-1-(2-methoxy-3-pyridinyl)ethyl]-2-methyl-1-piperazinyl][5-(4-methoxyphenyl)-6-methyl-7-(trifluoromethyl)pyrazolo[1,5-α]pyrimidin-3-yl]-]	1100 to 10000	1100 to 10000	–
COc1ccc(-c2nc3c(C(=O)N4CCN(C(CO)c5cccc(S(N)(=O)=O)c5)C[C@H]4C)cnn3c(C(F)(F)F)c2C)cc1 (stereo partly drawn) [benzenesulfonamide, 3-[2-hydroxy-1-[(3R)-4-[[5-(4-methoxyphenyl)-6-methyl-7-(trifluoromethyl)pyrazolo[1,5-α]pyrimidin-3-yl]carbonyl]-3-methyl-1-piperazinyl]ethyl]-]	> 10100	> 10100	–
COc1ccc(-c2nc3c(C(=O)N4CCN(C(CO)c5cn[nH]c5)C[C@H]4C)cnn3c(C(F)(F)F)c2C)cc1 (stereo partly drawn) [methanone, [(2R)-4-[2-hydroxy-1-(1H-pyrazol-4-yl)ethyl]-2-methyl-1-piperazinyl][5-(4-methoxyphenyl)-6-methyl-7-(trifluoromethyl)pyrazolo[1,5-α]pyrimidin-3-yl]-]	1100 to 10000	1100 to 10000	–
CCC(c1ccccc1)N1CCN(C(=O)c2cnn3c(C(F)(F)F)cc(-c4ccc(OC)cc4)nc23)CC1 (stereo not drawn) [methanone, [5-(4-methoxyphenyl)-7-(trifluoromethyl)pyrazolo[1,5-a]pyrimidin-3-yl][4-(1-phenylpropyl)-1-piperazinyl]-]	1100 to 10000	–	–
COc1ccc(-c2nc3c(C(=O)N4CCN([C@H](C)c5cc(F)cc(F)c5F)C[C@H]4C)cnn3c(C(F)(F)F)c2C)cc1 [methanone, [5-(4-methoxyphenyl)-6-methyl-7-(trifluoromethyl)pyrazolo[1,5-α]pyrimidin-3-yl][(2R)-2-methyl-4-[(1R)-1-(2,3,5-trifluorophenyl)ethyl]-1-piperazinyl]-]	< 1000	< 1000	–
COc1ccc(-c2nc3c(C(=O)N4CCN(C(CO)c5ccccc5NC(N)=O)C[C@H]4C)cnn3c(C(F)(F)F)c2C)cc1 (stereo partly drawn) [urea, N-[2-[2-hydroxy-1-[(3R)-4-[[5-(4-methoxyphenyl)-6-methyl-7-(trifluoromethyl)pyrazolo[1,5-α]pyrimidin-3-yl]carbonyl]-3-methyl-1-piperazinyl]ethyl]phenyl]-]	> 10100	> 10100	–
COc1ccc(-c2nc3c(C(=O)N4CCN(C(CO)c5cccc(Cl)c5)C[C@H]4C)cnn3c(C(F)(F)F)c2C)cc1 (stereo partly drawn) [methanone, [(2R)-4-[1-(3-chlorophenyl)-2-hydroxyethyl]-2-methyl-1-piperazinyl][5-(4-methoxyphenyl)-6-methyl-7-(trifluoromethyl)pyrazolo[1,5-α]pyrimidin-3-yl]-]	< 1000	< 1000	–
COc1ccc(-c2nc3c(C(=O)N4CCN([C@@H](C)c5cccs5)C[C@H]4C)cnn3c(C(F)(F)F)c2C)cc1 [methanone, [5-(4-methoxyphenyl)-6-methyl-7-(trifluoromethyl)pyrazolo[1,5-α]pyrimidin-3-yl][(2R)-2-methyl-4-[(1S)-1-(2-thienyl)ethyl]-1-piperazinyl]-]	< 1000	< 1000	–
COc1ccc(-c2nc3c(C(=O)N4CCN(C(CO)c5ccccc5NC(=O)C(C)C)C[C@H]4C)cnn3c(C(F)(F)F)c2C)cc1 (stereo partly drawn) [propanamide, N-[2-[2-hydroxy-1-[(3R)-4-[[5-(4-methoxyphenyl)-6-methyl-7-(trifluoromethyl)pyrazolo[1,5-α]pyrimidin-3-yl]carbonyl]-3-methyl-1-piperazinyl]ethyl]phenyl]-2-methyl-]	> 10100	> 10100	–
COc1ccc(-c2nc3c(C(=O)N4CCN([C@@H](C)c5ccc(NC(N)=O)cc5)C[C@H]4C)cnn3c(C(F)(F)F)c2C)cc1 [urea, N-[4-[(1)-1-[(3R)-4-[[5-(4-methoxyphenyl)-6-methyl-7-(trifluoromethyl)pyrazolo[1,5-α]pyrimidin-3-yl]carbonyl]-3-methyl-1-piperazinyl]ethyl]phenyl]-]	1100 to 10000	< 1000	–
COc1ccc(-c2cc(C(F)(F)F)n3ncc(C(=O)N4CCN(C(c5ccccc5)C(F)(F)F)CC4)c3n2)cc1 (stereo not drawn) [methanone, [5-(4-methoxyphenyl)-7-(trifluoromethyl)pyrazolo[1,5-α]pyrimidin-3-yl][4-(2,2,2-trifluoro-1-phenylethyl)-1-piperazinyl]-]	< 1000	–	–
COc1ccc(-c2nc3c(C(=O)N4CCN([C@@H](CO)c5ccccc5)C[C@H]4C)cnn3c(C(F)(F)F)c2C)cc1 [drawing 44, methanone, [(2R)-4-[(1R)-2-hydroxy-1-phenylethyl]-2-methyl-1-piperazinyl][5-(4-methoxyphenyl)-6-methyl-7-(trifluoromethyl)pyrazolo[1,5-α]pyrimidin-3-yl]-]	–	–	< 1000
COc1ccc(-c2cc(C(F)(F)F)n3ncc(C(=O)N4CCN([C@H](C)c5ccccc5)CC4)c3n2)cc1 [methanone, [5-(4-methoxyphenyl)-7-(trifluoromethyl)pyrazolo[1,5-α]pyrimidin-3-yl][4-(1-phenylethyl)-1-piperazinyl]-]	1100 to 10000	–	–
COc1ccc(-c2cc(C(F)(F)F)n3ncc(C(=O)N4CCN(C(C)c5ccccc5)CC4)c3n2)cc1 (stereo not drawn) [methanone, [5-(4-methoxyphenyl)-7-(trifluoromethyl)pyrazolo[1,5-α]pyrimidin-3-yl][4-(1-phenylethyl)-1-piperazinyl]-]	1100 to 10000	–	–
COc1ccc(-c2cc(C(F)(F)F)n3ncc(C(=O)N4CCN([C@@H](C)c5ccccc5)CC4)c3n2)cc1 [methanone, [5-(4-methoxyphenyl)-7-(trifluoromethyl)pyrazolo[1,5-α]pyrimidin-3-yl][4-(1-phenylethyl)-1-piperazinyl]-]	1100 to 10000	–	–
